Data set [1] concerns velvetleaf (Abutilon theophrasti). The data set can be described thus: Preemergence herbicidal activity, velvetleaf. The format is in vivo. The conditions noted are these: Rate of Application 0.3 Kg/Ha, examined after 12-17 days.
The test system of data set [2] is green foxtail (Setaria viridis). The data set can be described thus: Preemergence herbicidal activity, green foxtail. Format: in vivo. The conditions noted are these: Rate of Application 0.3 Kg/Ha, examined after 12-17 days.
Data set [3] relates to soybean (Glycine max var. Winchester). The data set can be described thus: Postemergence herbicidal activity, soybean. The format is in vivo. The conditions noted are these: rate of application 0.3 Kg/Ha, rated after 12-17 days.
For data set [4] the test system is unchanged. The data set can be described thus: Preemergence herbicidal activity, soybean. The format is in vivo. As to conditions: Rate of Application 0.3 Kg/Ha, examined after 12-17 days.
The test system of data set [5] is velvetleaf (Abutilon theophrasti). The data set can be described thus: Postemergence herbicidal activity, velvetleaf. Format: in vivo. The conditions noted are these: rate of application 0.3 Kg/Ha, rated after 12-17 days.
Data set [6] deals with morningglory (Ipomea lacunosa or Ipomea hederacea). Nature of the data set: Postemergence herbicidal activity, morningglory. The format is in vivo. The conditions noted are these: rate of application 0.3 Kg/Ha, rated after 12-17 days.
Data set [7] concerns field corn (Zea mays var. Pioneer 3732). The data set can be described thus: Preemergence herbicidal activity, corn. The format is in vivo. As to conditions: Rate of Application 0.3 Kg/Ha, examined after 12-17 days.
Data set [8] relates to Johnsongrass (Sorghum halepense). The data set can be described thus: Postemergence herbicidal activity, johnsongrass. The conditions noted are these: rate of application 0.3 Kg/Ha, rated after 12-17 days. Format: in vivo.
The subject of data set [9] is common cocklebur (Xanthium strumarium L.). The data set can be described thus: Preemergence herbicidal activity, cocklebur. Format: in vivo. As to conditions: Rate of Application 0.3 Kg/Ha, examined after 12-17 days.
Data set [10] deals with common chickweed (Stellaria media). The data set can be described thus: Preemergence herbicidal activity, chickweed. Format: in vivo. The conditions noted are these: Rate of Application 0.3 Kg/Ha, examined after 12-17 days.
Data set [11] concerns wheat (Triticum aestivum var. Lew). Nature of the data set: Postemergence herbicidal activity, wheat. The format is in vivo. As to conditions: rate of application 0.3 Kg/Ha, rated after 12-17 days.
In data set [12] the test system is blackgrass (Aloepecurus myosuroides). The data set can be described thus: Preemergence herbicidal activity, blackgrass. The format is in vivo. As to conditions: Rate of Application 0.3 Kg/Ha, examined after 12-17 days.
Data set [13] deals with morningglory (Ipomea lacunosa or Ipomea hederacea). Nature of the data set: Preemergence herbicidal activity, morningglory. As to conditions: Rate of Application 0.3 Kg/Ha, examined after 12-17 days. Format: in vivo.
Data set [14] concerns field corn (Zea mays var. Pioneer 3732). The data set can be described thus: Postemergence herbicidal activity, corn. The format is in vivo. As to conditions: rate of application 0.3 Kg/Ha, rated after 12-17 days.
For data set [15], the system named is Johnsongrass (Sorghum halepense). The data set can be described thus: Preemergence herbicidal activity, johnsongrass. The conditions noted are these: Rate of Application 0.3 Kg/Ha, examined after 12-17 days. Format: in vivo.
Data set [16] has as its system green foxtail (Setaria viridis). The data set can be described thus: Postemergence herbicidal activity, green foxtail. The format is in vivo. As to conditions: rate of application 0.3 Kg/Ha, rated after 12-17 days.
For data set [17], the system named is blackgrass (Aloepecurus myosuroides). The data set can be described thus: Postemergence herbicidal activity, blackgrass. The format is in vivo. As to conditions: rate of application 0.3 Kg/Ha, rated after 12-17 days.
Data set [18] has as its system common cocklebur (Xanthium strumarium L.). Nature of the data set: Postemergence herbicidal activity, cocklebur. Format: in vivo. As to conditions: rate of application 0.3 Kg/Ha, rated after 12-17 days.
Data set [19] has as its system wheat (Triticum aestivum var. Lew). The data set can be described thus: Preemergence herbicidal activity, wheat. Format: in vivo. The conditions noted are these: Rate of Application 0.3 Kg/Ha, examined after 12-17 days.
Data set [20] relates to common chickweed (Stellaria media). Nature of the data set: Postemergence herbicidal activity, chickweed. Format: in vivo. The conditions noted are these: rate of application 0.3 Kg/Ha, rated after 12-17 days.

The record followed here is patent US6352958B1, “Cycloimido-substituted benzofused heterocyclic herbicides” (FMC Corporation, priority 1997, dated 2002).

One may read the melting point as the temperature of the solid-liquid transition. For the compound `Cn1c(C(F)(F)F)cc(=O)n(-c2c(F)cc(Cl)c3[nH]c(C(C)(C)C)nc23)c1=O` [Compound 369, 3-(2-T-BUTYL4-CHLORO-6-FLUOROBENZIMIDAZOL-7-YL)-1-METHYL-6-TRIFLUOROMETHYL-2,4(1H,3H)-PYRIMIDINEDIONE], the melting point fell in the range of 125 to 130 °C. The inhibition at 300 g/ha in [1] (Abutilon theophrasti, pre-emergence, read-out: PREEMERGENCE HERBICIDAL ACTIVITY (% CONTROL) ABUTH) was found to be 100%. For the same compound, the inhibition at 300 g/ha in data set [2] (Setaria viridis, pre-emergence, read-out: PREEMERGENCE HERBICIDAL ACTIVITY (% CONTROL) SETVI) was determined as 100%. The inhibition at 300 g/ha in [3] (Glycine max, post-emergence, read-out: Postemergence herbicidal activity (% control) SOY) is 100%. Moreover, the inhibition at 300 g/ha in data set [4] (Glycine max, pre-emergence, read-out: PREEMERGENCE HERBICIDAL ACTIVITY (% CONTROL) SOY) turned out to be 100%. For the same compound, the inhibition at 300 g/ha in [5] (Abutilon theophrasti, post-emergence, read-out: Postemergence herbicidal activity (% control) ABUTH) turned out to be 100%. Also, the inhibition at 300 g/ha in data set [6] (Ipomoea, post-emergence, read-out: Postemergence herbicidal activity (% control) IPOSS) was 100%. The inhibition at 300 g/ha in data set [7] (Zea mays, pre-emergence, read-out: PREEMERGENCE HERBICIDAL ACTIVITY (% CONTROL) CRN) was determined as 100%. For the same compound, the inhibition at 300 g/ha in data set [8] (Sorghum halepense, post-emergence, read-out: Postemergence herbicidal activity (% control) SORHA) worked out at 100%. Also, the inhibition at 300 g/ha in data set [9] (Xanthium strumarium, pre-emergence, read-out: PREEMERGENCE HERBICIDAL ACTIVITY (% CONTROL) XANPE) was determined as 100%. Further, the inhibition at 300 g/ha in data set [10] (Stellaria media, pre-emergence, read-out: PREEMERGENCE HERBICIDAL ACTIVITY (% CONTROL) STEME) was found to be 100%. In data set [11] (Triticum aestivum, post-emergence, read-out: Postemergence herbicidal activity (% control) WHT), the inhibition at 300 g/ha turned out to be 80%. For the same compound, the inhibition at 300 g/ha in data set [12] (Alopecurus myosuroides, pre-emergence, read-out: PREEMERGENCE HERBICIDAL ACTIVITY (% CONTROL) ALOMY) is 100%. Besides, in data set [13] (Ipomoea, pre-emergence, read-out: PREEMERGENCE HERBICIDAL ACTIVITY (% CONTROL) IPOSS), the inhibition at 300 g/ha was determined as 100%. Further, in data set [14] (Zea mays, post-emergence, read-out: Postemergence herbicidal activity (% control) CRN), the inhibition at 300 g/ha came to 100%. Also, in [15] (Sorghum halepense, pre-emergence, read-out: PREEMERGENCE HERBICIDAL ACTIVITY (% CONTROL) SORHA), the inhibition at 300 g/ha was 100%. Besides, the inhibition at 300 g/ha in data set [16] (Setaria viridis, post-emergence, read-out: Postemergence herbicidal activity (% control) SETVI) was found to be 100%. In [17] (Alopecurus myosuroides, post-emergence, read-out: Postemergence herbicidal activity (% control) ALOMY), the inhibition at 300 g/ha stood at 100%. In addition, the inhibition at 300 g/ha in data set [18] (Xanthium strumarium, post-emergence, read-out: Postemergence herbicidal activity (% control) XANPE) was 100%. In addition, the inhibition at 300 g/ha in [19] (Triticum aestivum, pre-emergence, read-out: PREEMERGENCE HERBICIDAL ACTIVITY (% CONTROL) WHT) is 100%.
On to `CCOC(=O)c1cc2c(-n3c(=O)cc(C(F)(F)F)n(C)c3=O)c(F)cc(Cl)c2n1C` [Compound 522], for which the “PREEMERGENCE HERBICIDAL ACTIVITY (% CONTROL) ABUTH” value in data set [1] was determined as 100%. Moreover, the “PREEMERGENCE HERBICIDAL ACTIVITY (% CONTROL) SETVI” value in data set [2] was 100%. Besides, the “Postemergence herbicidal activity (% control) SOY” value in data set [3] came to 90%. Besides, the “PREEMERGENCE HERBICIDAL ACTIVITY (% CONTROL) SOY” value in [4] was determined as 90%. In addition, in data set [5], the “Postemergence herbicidal activity (% control) ABUTH” value is 100%. Also, the “Postemergence herbicidal activity (% control) IPOSS” value in data set [6] stood at 100%. Besides, the “PREEMERGENCE HERBICIDAL ACTIVITY (% CONTROL) CRN” value in data set [7] was 80%. Further, the “Postemergence herbicidal activity (% control) SORHA” value in data set [8] is recorded as 100%. The “PREEMERGENCE HERBICIDAL ACTIVITY (% CONTROL) XANPE” value in data set [9] is given as 50%. Besides, the “PREEMERGENCE HERBICIDAL ACTIVITY (% CONTROL) STEME” value in [10] is given as 100%. In addition, the “Postemergence herbicidal activity (% control) WHT” value in data set [11] worked out at 45%. For the same compound, the “PREEMERGENCE HERBICIDAL ACTIVITY (% CONTROL) ALOMY” value in data set [12] is given as 75%. Besides, the “PREEMERGENCE HERBICIDAL ACTIVITY (% CONTROL) IPOSS” value in data set [13] worked out at 100%. Further, in data set [14], the “Postemergence herbicidal activity (% control) CRN” value is 90%. Also, the “PREEMERGENCE HERBICIDAL ACTIVITY (% CONTROL) SORHA” value in [15] turned out to be 100%. In [16], the “Postemergence herbicidal activity (% control) SETVI” value was found to be 100%. The “Postemergence herbicidal activity (% control) STEME” value in data set [20] was 100%. In addition, in data set [17], the “Postemergence herbicidal activity (% control) ALOMY” value turned out to be 50%. Moreover, in data set [18], the “Postemergence herbicidal activity (% control) XANPE” value was 100%. Further, in [19], the “PREEMERGENCE HERBICIDAL ACTIVITY (% CONTROL) WHT” value amounted to 40%.
